Measurements taken from ChEMBL document CHEMBL1146055, “Arylphthalazines. Part 2: 1-(Isoquinolin-5-yl)-4-arylamino phthalazines as potent inhibitors of VEGF receptors I and II” (Bioorg Med Chem Lett, 2006).

What was measured:
[1] = molecular target: Vascular endothelial growth factor receptor 2 (Homo sapiens, UniProt P35968); experiment: Inhibition of VEGFR2 by HTRF assay
[2] = molecular target: Insulin receptor (Homo sapiens) (UniProt P06213); experiment: Inhibition of InsR at 10 uM
[3] = molecular target: Receptor-type tyrosine-protein kinase FLT3 (Homo sapiens) (UniProt P36888); experiment: Inhibition of FLT3 at 10 uM
Receptor-type tyrosine-protein kinase FLT3 (Homo sapiens), sequence (P36888 whole entry): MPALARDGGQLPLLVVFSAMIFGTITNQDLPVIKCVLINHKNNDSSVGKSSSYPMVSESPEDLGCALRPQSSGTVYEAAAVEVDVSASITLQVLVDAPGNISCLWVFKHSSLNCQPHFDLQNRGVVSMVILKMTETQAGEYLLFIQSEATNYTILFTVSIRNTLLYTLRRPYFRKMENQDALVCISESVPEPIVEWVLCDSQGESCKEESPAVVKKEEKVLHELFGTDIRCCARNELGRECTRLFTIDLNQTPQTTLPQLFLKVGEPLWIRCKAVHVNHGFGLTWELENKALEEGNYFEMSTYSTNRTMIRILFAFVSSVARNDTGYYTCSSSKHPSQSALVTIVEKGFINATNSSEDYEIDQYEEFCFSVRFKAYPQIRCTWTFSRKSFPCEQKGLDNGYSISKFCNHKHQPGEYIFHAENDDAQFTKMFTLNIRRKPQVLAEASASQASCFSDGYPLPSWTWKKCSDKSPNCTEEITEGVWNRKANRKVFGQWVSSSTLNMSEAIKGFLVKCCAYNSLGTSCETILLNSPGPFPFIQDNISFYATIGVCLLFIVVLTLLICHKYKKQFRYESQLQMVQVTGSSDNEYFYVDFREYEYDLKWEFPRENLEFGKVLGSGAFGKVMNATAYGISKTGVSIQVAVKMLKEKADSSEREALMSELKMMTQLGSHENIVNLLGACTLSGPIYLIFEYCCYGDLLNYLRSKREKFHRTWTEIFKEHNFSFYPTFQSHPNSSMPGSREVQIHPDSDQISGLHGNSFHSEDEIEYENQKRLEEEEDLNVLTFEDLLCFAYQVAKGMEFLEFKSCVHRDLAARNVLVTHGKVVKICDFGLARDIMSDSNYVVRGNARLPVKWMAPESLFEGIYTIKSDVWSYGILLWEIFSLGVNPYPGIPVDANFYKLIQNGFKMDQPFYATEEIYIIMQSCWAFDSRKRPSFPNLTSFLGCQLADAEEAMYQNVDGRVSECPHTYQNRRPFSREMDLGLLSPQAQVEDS

[4] = molecular target: Epidermal growth factor receptor (Homo sapiens) (UniProt P00533); details: 10 uM
Description: Inhibition of EGFR at 10 uM

[5] = molecular target: Hepatocyte growth factor receptor (Homo sapiens) (UniProt P08581); experiment: Inhibition of c-Met at 10 uM
Hepatocyte growth factor receptor (Homo sapiens), sequence (P08581 whole entry): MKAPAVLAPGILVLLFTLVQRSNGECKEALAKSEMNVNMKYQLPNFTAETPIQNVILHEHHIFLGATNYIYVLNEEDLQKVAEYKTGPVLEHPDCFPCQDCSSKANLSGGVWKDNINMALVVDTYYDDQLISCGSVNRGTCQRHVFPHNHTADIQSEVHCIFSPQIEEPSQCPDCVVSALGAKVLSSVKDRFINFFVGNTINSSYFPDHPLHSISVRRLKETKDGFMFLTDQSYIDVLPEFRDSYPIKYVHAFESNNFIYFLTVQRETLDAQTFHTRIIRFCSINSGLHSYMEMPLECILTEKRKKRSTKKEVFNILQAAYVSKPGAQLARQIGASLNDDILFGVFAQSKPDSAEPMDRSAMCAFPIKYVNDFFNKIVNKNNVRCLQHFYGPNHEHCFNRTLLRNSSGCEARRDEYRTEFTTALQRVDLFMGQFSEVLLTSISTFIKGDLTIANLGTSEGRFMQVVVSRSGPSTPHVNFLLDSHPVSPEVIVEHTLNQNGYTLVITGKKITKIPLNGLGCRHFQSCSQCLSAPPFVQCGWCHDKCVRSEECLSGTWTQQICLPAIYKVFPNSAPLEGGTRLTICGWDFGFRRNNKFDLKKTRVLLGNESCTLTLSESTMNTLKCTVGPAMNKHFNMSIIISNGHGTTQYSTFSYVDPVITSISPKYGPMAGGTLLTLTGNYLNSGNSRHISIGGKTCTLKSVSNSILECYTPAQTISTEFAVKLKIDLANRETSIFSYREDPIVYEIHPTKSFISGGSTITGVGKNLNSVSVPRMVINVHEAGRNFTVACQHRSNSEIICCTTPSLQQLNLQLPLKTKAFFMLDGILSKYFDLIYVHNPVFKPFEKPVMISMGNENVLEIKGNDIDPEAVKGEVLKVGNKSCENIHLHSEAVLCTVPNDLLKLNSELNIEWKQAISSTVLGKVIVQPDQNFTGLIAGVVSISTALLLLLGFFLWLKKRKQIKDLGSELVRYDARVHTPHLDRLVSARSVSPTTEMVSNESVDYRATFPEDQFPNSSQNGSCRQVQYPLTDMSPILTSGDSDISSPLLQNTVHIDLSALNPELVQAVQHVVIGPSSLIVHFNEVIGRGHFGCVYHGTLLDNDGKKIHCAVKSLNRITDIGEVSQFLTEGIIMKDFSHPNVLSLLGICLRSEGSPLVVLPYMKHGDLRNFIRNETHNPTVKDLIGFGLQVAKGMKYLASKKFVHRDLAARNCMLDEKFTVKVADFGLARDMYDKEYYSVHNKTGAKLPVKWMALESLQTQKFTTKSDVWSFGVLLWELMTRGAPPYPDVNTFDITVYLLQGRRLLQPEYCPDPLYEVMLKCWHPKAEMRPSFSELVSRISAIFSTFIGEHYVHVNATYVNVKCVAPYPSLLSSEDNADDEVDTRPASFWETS

[6] = molecular target: Insulin-like growth factor 1 receptor (Homo sapiens) (UniProt P08069); experiment: Inhibition of IGF1R at 10 uM
Insulin-like growth factor 1 receptor (Homo sapiens), sequence (P08069 31-736 limits assumed): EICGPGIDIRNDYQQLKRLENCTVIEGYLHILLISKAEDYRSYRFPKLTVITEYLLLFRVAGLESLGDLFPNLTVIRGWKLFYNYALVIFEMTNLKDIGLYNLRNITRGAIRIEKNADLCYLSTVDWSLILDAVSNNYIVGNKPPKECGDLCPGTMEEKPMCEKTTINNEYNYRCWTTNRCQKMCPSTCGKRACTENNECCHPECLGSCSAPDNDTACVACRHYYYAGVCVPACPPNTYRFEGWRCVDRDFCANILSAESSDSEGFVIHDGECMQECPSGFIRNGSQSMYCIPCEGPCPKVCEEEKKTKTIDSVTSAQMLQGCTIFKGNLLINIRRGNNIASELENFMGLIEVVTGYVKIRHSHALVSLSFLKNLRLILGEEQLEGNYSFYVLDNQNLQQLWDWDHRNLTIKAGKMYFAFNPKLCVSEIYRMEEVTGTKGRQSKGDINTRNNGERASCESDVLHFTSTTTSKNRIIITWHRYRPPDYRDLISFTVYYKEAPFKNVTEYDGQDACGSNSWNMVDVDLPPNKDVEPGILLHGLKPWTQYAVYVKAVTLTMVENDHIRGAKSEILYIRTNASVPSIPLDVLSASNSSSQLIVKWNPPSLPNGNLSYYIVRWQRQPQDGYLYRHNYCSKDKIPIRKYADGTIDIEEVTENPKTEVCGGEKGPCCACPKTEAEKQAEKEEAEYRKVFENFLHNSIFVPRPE
Insulin-like growth factor 1 receptor (Homo sapiens), sequence (P08069 741-1367 limits assumed): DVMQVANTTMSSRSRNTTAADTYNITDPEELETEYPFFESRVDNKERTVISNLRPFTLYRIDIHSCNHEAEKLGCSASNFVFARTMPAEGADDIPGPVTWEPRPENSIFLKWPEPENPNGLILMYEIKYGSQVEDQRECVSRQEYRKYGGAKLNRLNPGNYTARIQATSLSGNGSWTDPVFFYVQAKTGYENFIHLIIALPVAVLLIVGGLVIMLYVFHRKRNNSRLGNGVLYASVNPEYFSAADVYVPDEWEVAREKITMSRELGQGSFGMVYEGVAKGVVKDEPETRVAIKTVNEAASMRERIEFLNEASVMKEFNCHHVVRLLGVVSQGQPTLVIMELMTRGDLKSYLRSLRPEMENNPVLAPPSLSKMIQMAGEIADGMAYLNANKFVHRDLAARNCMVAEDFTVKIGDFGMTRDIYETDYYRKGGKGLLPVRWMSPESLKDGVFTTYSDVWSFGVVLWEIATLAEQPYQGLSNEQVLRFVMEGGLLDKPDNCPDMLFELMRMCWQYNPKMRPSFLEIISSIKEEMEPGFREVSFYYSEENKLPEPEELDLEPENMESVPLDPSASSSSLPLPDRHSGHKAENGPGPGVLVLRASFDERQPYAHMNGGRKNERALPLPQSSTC

Vascular endothelial growth factor receptor 2, sequence (P35968 whole entry): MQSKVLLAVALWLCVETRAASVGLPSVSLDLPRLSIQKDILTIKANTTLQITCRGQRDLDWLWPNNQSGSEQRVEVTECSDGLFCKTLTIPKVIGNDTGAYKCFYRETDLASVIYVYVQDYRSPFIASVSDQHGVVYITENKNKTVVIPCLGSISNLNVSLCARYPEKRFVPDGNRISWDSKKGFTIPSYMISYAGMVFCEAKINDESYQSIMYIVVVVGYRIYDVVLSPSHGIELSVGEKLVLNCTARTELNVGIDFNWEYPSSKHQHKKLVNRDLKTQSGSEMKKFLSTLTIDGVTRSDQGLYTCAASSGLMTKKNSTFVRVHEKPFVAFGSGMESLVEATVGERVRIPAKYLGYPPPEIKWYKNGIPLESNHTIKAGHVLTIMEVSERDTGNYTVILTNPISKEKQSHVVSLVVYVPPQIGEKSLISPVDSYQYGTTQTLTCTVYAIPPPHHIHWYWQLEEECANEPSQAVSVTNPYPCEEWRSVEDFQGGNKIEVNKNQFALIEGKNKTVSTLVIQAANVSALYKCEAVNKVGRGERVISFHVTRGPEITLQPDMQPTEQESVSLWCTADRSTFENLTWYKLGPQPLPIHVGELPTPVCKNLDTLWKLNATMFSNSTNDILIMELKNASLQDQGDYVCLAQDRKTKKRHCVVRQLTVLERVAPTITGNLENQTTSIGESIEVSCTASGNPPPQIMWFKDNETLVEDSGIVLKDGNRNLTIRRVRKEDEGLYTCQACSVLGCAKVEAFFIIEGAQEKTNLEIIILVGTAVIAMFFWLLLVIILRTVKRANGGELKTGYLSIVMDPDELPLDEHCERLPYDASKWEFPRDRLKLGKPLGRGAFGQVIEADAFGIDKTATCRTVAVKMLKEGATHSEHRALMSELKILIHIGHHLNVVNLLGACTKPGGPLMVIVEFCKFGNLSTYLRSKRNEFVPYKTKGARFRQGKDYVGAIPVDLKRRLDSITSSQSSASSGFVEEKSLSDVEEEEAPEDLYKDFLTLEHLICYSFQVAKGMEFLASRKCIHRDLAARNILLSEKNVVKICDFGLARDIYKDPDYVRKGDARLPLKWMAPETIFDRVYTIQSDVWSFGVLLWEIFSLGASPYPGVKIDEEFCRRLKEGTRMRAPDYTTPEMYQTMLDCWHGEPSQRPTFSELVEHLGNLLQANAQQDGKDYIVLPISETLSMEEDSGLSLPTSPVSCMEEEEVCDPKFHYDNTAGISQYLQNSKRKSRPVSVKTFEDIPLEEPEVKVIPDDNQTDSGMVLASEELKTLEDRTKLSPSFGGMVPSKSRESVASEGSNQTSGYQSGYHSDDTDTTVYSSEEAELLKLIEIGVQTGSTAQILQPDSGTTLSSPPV

IC50 [1] [µM] | inhibition [2] [%] | inhibition [3] [%] | inhibition [4] [%] | inhibition [5] [%] | inhibition [6] [%] | Structure (SMILES)
> 10 | – | – | – | – | – | Clc1ccc(Nc2nnc(-c3cn[nH]c3)c3ccccc23)cc1
0.048 | 10 | 33 | 13 | 2 | 25 | Clc1ccc(Nc2nnc(-c3cccc4cnccc34)c3ccccc23)cc1
> 10 | – | – | – | – | – | Cn1cc(-c2nnc(Nc3ccc(Cl)cc3)c3ccccc23)cn1
